Measured values: US10292390B2, “Inhibition and dispersion of bacterial biofilms with 2-aminobenzimidazole derivatives” (WISCONSIN ALUMNI RESEARCH FOUNDATION, priority 2011, dated 2019)
“Also recorded” adds a separate entry of the source.

Columns and labels:
[1] = tested on: LasR activity, P. aeruginosa PAO1/plasI-LVAgfp; test: Las QS reporter assay (GFP fluorescence); assay type: cell-based, Pseudomonas aeruginosa; settings: for LasR activity: at 1-10× IC50 values for biofilm inhibition; for inhibition of Las-QS system: fluorescence dose curves, 12 and 24 h
Procedure: As introduced above, the role of QS in biofilm formation is well documented and therefore the abilities of 7 and 21 to inhibit QS in P. aeruginosa were evaluated. For this purpose, two wild-type P. aeruginosa QS reporter strains were prepared that contain the plasmids plasI-LVAgfp and prhII-LVAgfp. (see: The Examples) These strains report the activity of two intracellular QS receptors in P. aeruginosa (LasR and RhlR) by the production of green fluorescent protein (gfp), allowing for LasR and RhlR activities, and thus QS levels, to be quantified by fluorescence. […] Studies of related 2-ABI derivatives have shown that this class of molecules is bacterial cell permeable, allowing us to surmise that 7 and 21 could act on the Las and Rhl systems intracellularly. […] The precise targets of 7 and 21 that result in QS disruption are not yet known.
To evaluate the activity of compounds 7 and 21 on QS in P. aeruginosa, we prepared two P. aeruginosa QS reporter strains: PAO1/plasI-LVAgfp and PAO1/prhII-LVAgfp. These strains contain the reporter plasmids plasI-LVAgfp and prhII-LVAgfp, respectively, which contain the laslI or rhII promoter sequences fused to LVAgfp. Binding of activated LasR or RhlR to these promoters induces GFP production, which can be quantified by fluorescence and is proportional to the level of LasR or RhlR activation. LVAgfp is an unstable form of GFP with an estimated half-life of 40-60 min, which allows for a more real-time analysis of gene expression (wild-type GFP has a half-life of greater than 1 day). Further, this specific GFP is the variant GFPmut3b that has a shifted excitation maximum near 501 nm (wild-type GFP has an excitation maximum near 395 nm); emission maximum is similar to wild-type GFP at 511 nm (wild-type GFP has emission maximum near 508 nm). Utilizing this GFP variant is key to detection over native fluorescent pigments that are produced in P. aeruginosa and excite near 400 nm and emit near 500 nm. Preparation and analysis of the PAO1/plasI-LVAgfp and PAO1/prhII-LVAgfp reporters are outlined below.
Compounds 7 and 21 were evaluated for their ability to modulate the Las and Rhl systems using the P. aeruginosa PAO1/plasI-LVAgfp and PAO1/prhII-LVAgfp reporters. We used the same exact setup as the static biofilm assay in 96-well microtiter plates for P. aeruginosa with the exception that freezer stocks were streaked on LB/agar with 300 μg/mL Carb. Microtiter plates were prepared similar to dose-response analysis such that final well concentrations upon inoculum addition ranged from 10^x μM where x=3.5, 3, 2.5, 2, 1.5, 1, 0, −1, or −2. Measurements of FL500/540 and OD600 were made at 12 and 24 h, and after 24 h the samples were evaluated for biofilm formation using the CV procedure. […]

[2] = tested on: P. aeruginosa PAO1 gen-gfp; test: constitutive GFP production (general protein synthesis); assay type: cell-based, Pseudomonas aeruginosa; settings: 24 h; dose-response
Procedure: Compounds 7 and 21 were tested for their effect on general protein synthesis in P. aeruginosa. In these assays a P. aeruginosa strain that constitutively produced GFP was employed. […] [59]
The constitutively-expressing genomic (gen)-GFP strain, PAO1 gen-gfp, was prepared using the mini-Tn7 transposon system reported by Lambertsen et al. and Koch et al. to introduce the Tn7 element miniTn7-gfp2 into the neutral chromosomal site attTn7 in the PAO1 genome. The Tn7 element miniTn7-gfp2 was chosen for these studies because it encodes for the same GFP variant, GFPmut3b, used in our QS reporters, discussed herein below. However, rather than being an unstable GFP under the control of the laslI or rhII QS-dependent promoter as in the QS reporters, GFP is stable and under the control of the constitutive E. coli lac-promoter derivative PA1/04/03. The use of this strain allows a comparison of QS-dependent and non-QS-dependent gene expression in the presence of 7 and 21.
Compounds 7 and 21 were evaluated for their ability to affect constitutive GFP production in the P. aeruginosa PAO1 gen-gfp strain using the static biofilm assay conditions described above. […] Measurements of FL500/540 and OD600 were made at 24 h, after which the samples were evaluated for biofilm formation using the CV procedure. […]

| SMILES | LasR activity [1] | inhibition of Las-QS system [1] | effect on constitutive GFP production / protein synthesis [2] |
| --- | --- | --- | --- |
| Nc1nc2ccccc2[nH]1 [Compound 7, 2-aminobenzimidazole] | significant reduction | able to inhibit | only inhibit the production of GFP at concentrations where bacterial growth is also inhibited; also recorded: do not simply globally affect protein synthesis |
| Cc1cc2nc(N)[nH]c2cc1C [Compound 21, 5,6-Dimethyl-2-aminobenzimidazole] | significant reduction | able to inhibit | only inhibit the production of GFP at concentrations where bacterial growth is also inhibited; also recorded: do not simply globally affect protein synthesis |
